± gives the expanded uncertainty stated by the source.
Test: molar heat capacity at constant pressure; xn = mol fraction of the nth substance listed
Conditions: 101.3 kPa, Liquid, Small sample (50 mg) DSC

CNCCN(C)C [N,N,N'-trimethylethylenediamine] + O
molar heat capacity at constant pressure [J/K/mol]
Conditions | x1 = 0.1 | x1 = 0.3 | x1 = 0.5 | x1 = 0.7 | x1 = 0.9 | x1 = 1
303.2 K | 105.2 ± 4.3 | 151 ± 5.4 | 188.5 ± 6.5 | 217.4 ± 7.4 | 245.2 ± 8.2 | 258.3 ± 8.6
308.2 K | 105.5 ± 4.3 | 152.4 ± 5.5 | 190.1 ± 6.5 | 219.1 ± 7.4 | 246.8 ± 8.3 | 260 ± 8.6
313.2 K | 106.1 ± 4.4 | 154 ± 5.5 | 192.1 ± 6.6 | 221.2 ± 7.5 | 249.3 ± 8.4 | 262.7 ± 8.7
318.2 K | 106.5 ± 4.4 | 155.6 ± 5.6 | 193.9 ± 6.7 | 223.1 ± 7.5 | 251.7 ± 8.5 | 265.3 ± 8.8
323.2 K | 107.3 ± 4.5 | 157.8 ± 5.7 | 196.1 ± 6.7 | 226 ± 7.6 | 255.5 ± 8.6 | 269.2 ± 8.9
328.2 K | 107.6 ± 4.5 | 159.5 ± 5.8 | 198.2 ± 6.8 | 228.5 ± 7.7 | 258.7 ± 8.7 | 272.7 ± 9
333.2 K | 108.1 ± 4.6 | 161.4 ± 5.8 | 200.2 ± 6.9 | 231 ± 7.8 | 261.8 ± 8.8 | 276 ± 9.2
338.2 K | 108.5 ± 4.6 | 162.7 ± 5.9 | 201.9 ± 6.9 | 233.3 ± 7.9 | 264.4 ± 8.9 | 278.9 ± 9.3
343.2 K | 109 ± 4.6 | 163.8 ± 5.9 | 203.3 ± 7 | 235.3 ± 8 | 267.3 ± 9 | 281.3 ± 9.3
348.2 K | 109.4 ± 4.7 | 164.8 ± 6 | 204.4 ± 7 | 237.5 ± 8 | 270.2 ± 9.1 | 283.4 ± 9.4
353.2 K | 110.3 ± 4.7 | 166.2 ± 6 | 206.3 ± 7.1 | 239.8 ± 8.1 | 273.1 ± 9.2 | 286.6 ± 9.5

NCCN1CCNCC1 [N-(β-aminoethyl)piperazine)] + O
molar heat capacity at constant pressure [J/K/mol]
Conditions | x1 = 0.1 | x1 = 0.3 | x1 = 0.5 | x1 = 0.7 | x1 = 0.9 | x1 = 1
303.2 K | 109.7 ± 4.5 | 157.3 ± 5.7 | 202.1 ± 7 | 242.8 ± 8.3 | 278.3 ± 9.4 | 289.7 ± 9.6
308.2 K | 110.2 ± 4.5 | 158.5 ± 5.7 | 203.2 ± 7.1 | 244.3 ± 8.3 | 279.8 ± 9.4 | 290.8 ± 9.6
313.2 K | 110.7 ± 4.6 | 160.3 ± 5.8 | 204.8 ± 7.1 | 246.3 ± 8.4 | 281.6 ± 9.5 | 293.1 ± 9.7
318.2 K | 111 ± 4.6 | 162.1 ± 5.9 | 206.3 ± 7.2 | 248.1 ± 8.5 | 283.1 ± 9.5 | 294.7 ± 9.8
323.2 K | 111.4 ± 4.7 | 164.3 ± 6 | 208.5 ± 7.2 | 250.6 ± 8.5 | 285.2 ± 9.6 | 296.9 ± 9.8
328.2 K | 111.4 ± 4.7 | 165.7 ± 6 | 210 ± 7.3 | 252.5 ± 8.6 | 287 ± 9.7 | 298.5 ± 9.9
333.2 K | 111.6 ± 4.8 | 167.3 ± 6.1 | 211.8 ± 7.3 | 253.5 ± 8.6 | 289 ± 9.7 | 300.7 ± 10
338.2 K | 111.8 ± 4.8 | 168.7 ± 6.1 | 213.6 ± 7.4 | 254.5 ± 8.7 | 290.9 ± 9.8 | 302.2 ± 10
343.2 K | 112.4 ± 4.8 | 170.1 ± 6.2 | 215.2 ± 7.5 | 255.9 ± 8.7 | 292 ± 9.8 | 303.3 ± 10
348.2 K | 112.6 ± 4.9 | 171.4 ± 6.2 | 216.3 ± 7.5 | 256.2 ± 8.7 | 292.5 ± 9.8 | 303.6 ± 10
353.2 K | 112.9 ± 4.9 | 173.1 ± 6.3 | 217.6 ± 7.5 | 257.3 ± 8.7 | 293.7 ± 9.9 | 304.6 ± 10
